Test results: ChEMBL document CHEMBL3091400, “The discovery of novel N-(2-pyrimidinylamino) benzamide derivatives as potent hedgehog signaling pathway inhibitors” (Bioorg Med Chem Lett, 2013)

Assays:
Sonic hedgehog protein = Sonic hedgehog protein (Mus musculus, UniProt Q62226); assay: Inhibition of SHH signaling pathway in mouse NIH3T3 cells measured after 48 hrs by Gli-luciferase reporter assay; type: cell-based
[1] = Mean residence time in Sprague-Dawley rat at 5 mg/kg, po; type: ADME, organism-based; parameters: dose 5 mg/kg, route oral; conditions: in vivo
[2] = Half life in Sprague-Dawley rat at 5 mg/kg, po; type: ADME, organism-based; parameters: dose 5 mg/kg, route oral; conditions: in vivo
[3] = Half life in Sprague-Dawley rat at 1 mg/kg, iv; type: ADME, organism-based; parameters: dose 1 mg/kg, route intravenous; conditions: in vivo
Rattus norvegicus [4] = assay: Volume of distribution at steady state in Sprague-Dawley rat at 1 mg/kg, iv; type: ADME, organism-based; parameters: dose 1 mg/kg, route intravenous; conditions: in vivo
Rattus norvegicus [5] = assay: Volume of distribution at steady state in Sprague-Dawley rat at 5 mg/kg, po; type: ADME, organism-based; parameters: dose 5 mg/kg, route oral; conditions: in vivo
[6] = AUC in Sprague-Dawley rat at 1 mg/kg, iv; type: ADME, organism-based; parameters: dose 1 mg/kg, route intravenous; conditions: plasma
[7] = Oral bioavailability in Sprague-Dawley rat at 5 mg/kg; type: ADME, organism-based; conditions: in vivo
[8] = AUC in Sprague-Dawley rat at 5 mg/kg, po; type: ADME, organism-based; parameters: dose 5 mg/kg, route oral; conditions: plasma
[9] = Clearance in Sprague-Dawley rat at 5 mg/kg, po; type: ADME, organism-based; parameters: dose 5 mg/kg, route oral; conditions: in vivo
Rattus norvegicus [10] = assay: Mean residence time in Sprague-Dawley rat at 1 mg/kg, iv; type: ADME, organism-based; parameters: dose 1 mg/kg, route intravenous; conditions: in vivo
Rattus norvegicus [11] = assay: Clearance in Sprague-Dawley rat at 1 mg/kg, iv; type: ADME, organism-based; parameters: dose 1 mg/kg, route intravenous; conditions: in vivo
[12] = Cmax in Sprague-Dawley rat at 5 mg/kg, po; type: ADME, organism-based; parameters: dose 5 mg/kg, route oral; conditions: in vivo
[13] = Cmax in Sprague-Dawley rat at 1 mg/kg, iv; type: ADME, organism-based; parameters: dose 1 mg/kg, route intravenous; conditions: in vivo

Chain of Sonic hedgehog protein (Q62226 25-198 limits assumed): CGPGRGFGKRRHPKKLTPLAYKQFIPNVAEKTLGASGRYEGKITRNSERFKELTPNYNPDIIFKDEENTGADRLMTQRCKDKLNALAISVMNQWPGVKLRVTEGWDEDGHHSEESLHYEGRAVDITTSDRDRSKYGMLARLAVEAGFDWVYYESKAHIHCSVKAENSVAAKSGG

Compound | IC50 (Sonic hedgehog protein) [nM] | also measured
Cc1cnc(Nc2ccc(C(=O)Nc3c(C)cccc3C)cc2)nc1-c1ccncc1 | 0.54 | 
Cc1cccc(C)c1NC(=O)c1ccc(Nc2nc(C)c(C)c(-c3ccc(OC(F)(F)F)cc3)n2)cc1 | 1.6 | 
Cc1cccc(C)c1NC(=O)c1ccc(Nc2nccc(-c3ccc(OC(F)(F)F)cc3)n2)cc1 | 1.2 | 
Cc1cc(-c2ccc(OC(F)(F)F)cc2)nc(Nc2ccc(C(=O)Nc3c(C)cccc3C)cc2)n1 | 1.4 | 
Cc1cccc(C)c1NC(=O)c1ccc(Nc2ncc(F)c(-c3ccc(OC(F)(F)F)cc3)n2)cc1 | 1.6 | 
CCCc1cc(-c2ccc(OC(F)(F)F)cc2)nc(Nc2ccc(C(=O)Nc3c(C)cccc3C)cc2)n1 | 0.8 | 
CCc1cnc(Nc2ccc(C(=O)Nc3c(C)cccc3C)cc2)nc1-c1ccc(OC(F)(F)F)cc1 | 5.3 | 
Cc1cccc(C)c1NC(=O)c1ccc(Nc2cc(-c3ccc(OC(F)(F)F)cc3)ccn2)cc1 | 1.6 | 
Cc1cccc(C)c1NC(=O)c1ccc(Nc2cccc(-c3ccc(OC(F)(F)F)cc3)n2)cc1 | 23.4 | 
Cc1cccc(C)c1NC(=O)c1ccc(Nc2ncc(C(F)(F)F)c(-c3ccc(OC(F)(F)F)cc3)n2)cc1 | 0.53 | 
Cc1cnc(Nc2ccc(C(=O)Nc3c(C)cccc3C)cc2)nc1-c1cccnc1 | > 500 | 
Cc1cnc(Nc2ccc(C(=O)Nc3c(C)cccc3C)cc2)nc1-c1cnn(C)c1 | 10.6 | 
Cc1cnc(Nc2ccc(C(=O)Nc3c(C)cccc3C)cc2)nc1-c1ccoc1 | 15.7 | 
Cc1cnc(Nc2ccc(C(=O)Nc3c(C)cccc3C)cc2)nc1C1CC1 | 32.8 | 
Cc1cnc(Nc2ccc(C(=O)Nc3c(C)cccc3C)cc2)nc1C | 152 | 
Cc1cnc(Nc2ccc(C(=O)Nc3c(C)cccc3C)cc2)nc1Cc1ccccc1 | 34.3 | 
Cc1cnc(N(C)c2ccc(C(=O)Nc3c(C)cccc3C)cc2)nc1-c1ccc(OC(F)(F)F)cc1 | 2.7 | 
Cc1ccccc1C(=O)Nc1ccc(Nc2ncc(C)c(-c3ccc(OC(F)(F)F)cc3)n2)cc1 | 42.1 | 
Cc1ccccc1NC(=O)c1ccc(Nc2ncc(C)c(-c3ccc(OC(F)(F)F)cc3)n2)cc1 | 1 | 
Cc1ccc(-c2cnn(C)c2)cc1NC(=O)c1ccc(Nc2ncc(C)c(-c3ccc(OC(F)(F)F)cc3)n2)cc1 | 1.2 | 

Compound | IC50 (Sonic hedgehog protein) [nM] | also measured
Cc1cnc(Nc2ccc(C(=O)Nc3ccc(CN4CCN(C)CC4)cc3)cc2)nc1-c1ccc(OC(F)(F)F)cc1 | 118 | 
Cc1cnc(Nc2ccc(C(=O)Nc3ccccc3CN3CCN(C)CC3)cc2)nc1-c1ccc(OC(F)(F)F)cc1 | 354 | 
Cc1cnc(Nc2ccc(C(=O)NC(C)C)cc2)nc1-c1ccc(OC(F)(F)F)cc1 | 73.1 | 
Cc1cnc(Nc2ccc(C(=O)NC3CCCCC3)cc2)nc1-c1ccc(OC(F)(F)F)cc1 | 2.2 | 
Cc1ccc(CN(C)Cc2ccccc2)cc1NC(=O)c1ccc(Nc2ncc(C)c(-c3ccc(OC(F)(F)F)cc3)n2)cc1 | 1.1 | 
Cc1ccc(CN(C)Cc2ccccc2)cc1NC(=O)c1ccc(Nc2ncc(C)c(C)n2)cc1 | 101 | 
Cc1cccc(C)c1NC(=O)c1ccc(Nc2ncc(C3CC3)c(-c3ccc(OC(F)(F)F)cc3)n2)cc1 | 1.3 | 
Cc1cnc(Nc2ccc3[nH]ncc3c2)nc1-c1ccc(OC(F)(F)F)cc1 | 125 | 
Cc1cnc(Nc2ccc(N3C[C@@H](C)O[C@@H](C)C3)nc2)nc1-c1ccc(OC(F)(F)F)cc1 | > 500 | 
Cc1cnc(Nc2ccc(C(=O)Nc3c(C)cccc3C)cc2)nc1-c1ccc(OC(F)(F)F)cc1 | 1.3 | MRT [1]: 5.1 h; half-life [2]: 7 h; half-life [3]: 10.3 h; Vdss (Rattus norvegicus [4]): 14.898 L/kg; Vdss (Rattus norvegicus [5]): 27.738 L/kg; AUC [6]: 915 ng·h/mL; bioavailability [7]: 36%; AUC [8]: 1700 ng·h/mL; CL/F [9]: 46.6 mL/min/kg; MRT (Rattus norvegicus [10]): 4 h; CL (Rattus norvegicus [11]): 16.73 mL/min/kg; Cmax [12]: 342 ng/mL; Cmax [13]: 764 ng/mL
Cc1cnc(Nc2ccc(C(=O)Nc3c(C)cccc3C)cc2)nc1-c1cccc(OC(F)(F)F)c1 | 1.2 | 
Cc1cnc(Nc2ccc(C(=O)Nc3c(C)cccc3C)cc2)nc1-c1ccccc1OC(F)(F)F | > 500 | 
Cc1cnc(Nc2ccc(C(=O)Nc3c(C)cccc3C)cc2)nc1-c1ccc(OC(F)(F)F)c(F)c1 | 159 | 
Cc1cnc(Nc2ccc(C(=O)Nc3c(C)cccc3C)cc2)nc1-c1ccc(C#N)cc1 | 2.8 | 
Cc1cnc(Nc2ccc(C(=O)Nc3c(C)cccc3C)cc2)nc1-c1ccc(N2CCOCC2)cc1 | 20.2 | 
Cc1cnc(Nc2ccc(C(=O)Nc3c(C)cccc3C)cc2)nc1-c1ccc(F)cc1 | 2.2 | 
Cc1ccc(-c2nc(Nc3ccc(C(=O)Nc4c(C)cccc4C)cc3)ncc2C)cc1 | > 500 | 
Cc1cnc(Nc2ccc(C(=O)Nc3c(C)cccc3C)cc2)nc1-c1ccccc1 | 1.3 | 
Cc1c(C(=O)Nc2ccc(N3C[C@@H](C)O[C@@H](C)C3)nc2)cccc1-c1ccc(OC(F)(F)F)cc1 [SONIDEGIB] | 5.5 | 
CS(=O)(=O)c1ccc(C(=O)Nc2ccc(Cl)c(-c3ccccn3)c2)c(Cl)c1 [VISMODEGIB] | 7.2 | 
